Source: US9737502B2, “Calebin A for hepatic steatosis” (SAMI LABS LIMITED, priority 2011, dated 2017)

Tests used:
mice = assay: Acute oral toxicity of Calebin A; assay type: in vivo
Method: No mortality was observed up to 2000 mg/kg p.o. in mice up to two weeks of observation.

[1] = test system: epididymal fat (adipocytes); assay: Adipocyte size in epididymal fat of HFD mice (H&E histology); assay type: in vivo, C57BL/6J mice; conditions: Calebin A 0.25% and 1%, 12 weeks
Method: Fully differentiated adipocytes (8 days) previously untreated with Calebin A as described in procedural steps outlined in Example IV were treated with Calebin A at concentrations of 5-30 μM. Lipolysis was linked to the breakdown of lipids into glycerol that was released into the cell culture medium and detected thereof. […] Thus, in another most preferred embodiment, the present invention relates to a method of inducing lipolysis in mammalian adipocytes, said method comprising the step of treating mammalian adipocytes with varying concentrations of Calebin A to bring about the effect of dose dependant lipolysis in said adipocytes. […] Epididymal fat pads were dissected and fixed in 10% buffered formalin for at least 24 hours, then dehydrated with a sequence of ethanol solutions and processed for embedding in paraffin. Sections of 5-6 μm in thickness were cut, de-paraffinized, rehydrated, stained with haematoxylin & eosin (H&E) and subjected to photomicroscopic assessment. Adipocyte size was determined using a Nikon light microscope (Japan) equipped with an ocular micrometer at 200× magnification in 10 random fields per section. […]

3T3-L1 cells = assay: Oil Red-O staining of adipogenic cultures (adipogenesis inhibition); assay type: cell-based, mouse
Method: Terminal differentiation of adipocytes is accompanied by the accumulation of great amounts of lipids in large cytoplasmic vesicles. A common assay to measure adipocyte differentiation in cell culture is with the dye Oil Red-O (ORO). ORO is a lipid-soluble bright red dye which is a reliable indicator of adipocyte differentiation (adipogenesis).
3T3-L1 cells approximately 60×10^4 cells are seeded for 48-72 hrs to get 70-80% confluence. After 48 hrs 200 μl of AIM (Adipogenesis induction medium) freshly prepared is added. 72 hrs later 200 μl APM (Adipogenesis progression medium) with the test compounds in different concentrations is added to the wells. The cells are incubated for 48 hrs in a humidified atmosphere (37° C.) of 5% CO2 and 95% air. The supernatant is collected and stored for the estimation of leptin, adiponectin, IL-6 and TNF-α by ELISA. Cells are fixed by adding 100 μl of 10% formalin and ORO staining is done. OD is read at 492 nm in microplate reader. The results are expressed as IC50 values using Graphpad prism software.
The percentage of inhibition of adipogenesis is calculated as follows, % inhibition=C−T/[…] Where C-absorbance of Oil red 0 in differentiating/undifferentiated cells T-absorbance of Oil Red-O in sample treated differentiating/undifferentiated cells. The estimation of leptin, adiponectin, IL-6 and TNF-α is done according to user's manual from R&D Systems.

SMILES: COc1cc(/C=C/C(=O)COC(=O)/C=C/c2ccc(O)c(OC)c2)ccc1O [Calebin A]
- Autonomic Nervous System: Atexia (mice; mouse, in vivo, po): Atexia = Nil
- Autonomic Nervous System: Diarrhea (mice; mouse, in vivo, po): Diarrhea = Nil
- Autonomic Nervous System: Motor Activity (mice; mouse, in vivo, po): Motor Activity = Normal
- Autonomic Nervous System: Respiration Rate (mice; mouse, in vivo, po): Respiration Rate = Normal
- Central Nervous System: Clonic Convulsions (mice; mouse, in vivo, po): Clonic Convulsions = Nil
- Central Nervous System: Excitation (mice; mouse, in vivo, po): Excitation = Nil
- Central Nervous System: Motor Activity (mice; mouse, in vivo, po): Motor Activity = Nil
- Central Nervous System: Tonic Convulsion (mice; mouse, in vivo, po): Tonic Convulsion = Nil
- Central Nervous System: Tremors (mice; mouse, in vivo, po): Tremors = Nil
- Dermal: Blanching (mice; mouse, in vivo, po): Blanching = Nil
- Dermal: Cyanosis (mice; mouse, in vivo, po): Cyanosis = Nil
- Dermal: Hyperaemia (mice; mouse, in vivo, po): Hyperaemia = Nil
- Food and Water (Intake and Excretion): Fecal Output (mice; mouse, in vivo, po): Fecal Output = Normal
- Food and Water (Intake and Excretion): Urine Output (mice; mouse, in vivo, po): Urine Output = Normal
- General Behaviour: Aggression (mice; mouse, in vivo, po): Aggression = Nil
- General Behaviour: Fear (mice; mouse, in vivo, po): Fear = Nil
- General Behaviour: General Locomotor Activity (mice; mouse, in vivo, po): Normal
- General Behaviour: General Movement (mice; mouse, in vivo, po): General Movement = Normal
- General Behaviour: Passive (mice; mouse, in vivo, po): Passive = Nil
- General Parameters: Diarrhea (mice; mouse, in vivo, po): Diarrhea = Nil
- General Parameters: Muscular Weakness (mice; mouse, in vivo, po): Muscular Weakness = Nil
- General Parameters: Pilo Erection (mice; mouse, in vivo, po): Pilo Erection = Nil
- General Parameters: Salivation (mice; mouse, in vivo, po): Salivation = Nil
- Reflexes: Corneal (mice; mouse, in vivo, po): Corneal = No effect
- Reflexes: Pinnal (mice; mouse, in vivo, po): Pinnal = No effect
- Respiratory System: Respiration Depth (mice; mouse, in vivo, po): Respiration Depth = Normal
- Respiratory System: Respiration Rate (mice; mouse, in vivo, po): Respiration Rate = Normal
- mortality (mice; up to 2000 mg/kg p.o., up to two weeks of observation): No mortality
- size of adipocytes [1]: remarkable reduction
- percentage adipogenesis inhibition (3T3-L1 cells; 0.5 μg/ml): 32.43%
- percentage adipogenesis inhibition (3T3-L1 cells; 1.0 μg/ml): 38.59%
- percentage adipogenesis inhibition (3T3-L1 cells; 2.0 μg/ml): 35.8%
